Reference: PubChem BioAssay AID330 (DTP/NCI, 2004)
“And” between values parts separate entries of the source, which are not always exact repeats. Identical values can stand only once. Toxic doses and inconclusive results are not listed.

Tested on: P388 leukemia ip, CD2F1 mice, survival T/C
Test: NCI In Vivo Anticancer Drug Screen. Data for tumor model P388 Leukemia (intraperitoneal) in CD2F1 (CDF1) mice
Settings: endpoint: median survival time, higher = longer survival
In short: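 Mice carrying the transplanted tumor received test compound or vehicle. Survival was recorded in each group, and the value is the treated-group measurement divided by that of the vehicle-treated control group.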

[1] = dose: 6.25 mg/kg/injection, schedule: Q01DX009 (ip), vehicle: saline with Tween-80
[2] = dose: 60.0 mg/kg/injection, schedule: Q01DX005 (ip), vehicle: Klucel (hydroxypropylcellulose) (HPC)
[3] = dose: 60.0 mg/kg/injection, schedule: Q01DX005 (ip), vehicle: saline with Tween-80
[4] = dose: 120.0 mg/kg/injection, schedule: Q01DX005 (ip), vehicle: saline with Tween-80
[5] = dose: 240.0 mg/kg/injection, schedule: Q01DX005 (ip), vehicle: saline with Tween-80
[6] = dose: 100.0 mg/kg/injection, schedule: Q04DX003 (ip), vehicle: saline

CCCC(=O)NC1=C(N2CC2)C(=O)C(NC(=O)CCC)=C(N2CC2)C1=O
T/C (dose: 0.13 mg/kg/injection, schedule: Q01DX009 (ip), vehicle: saline with Tween-80): 120 % of control
T/C (dose: 0.2 mg/kg/injection, schedule: Q01DX009 (ip), vehicle: saline with Tween-80): 118 % of control
T/C (dose: 0.44 mg/kg/injection, schedule: Q01DX009 (ip), vehicle: saline with Tween-80): 112 % of control
T/C (dose: 1.0 mg/kg/injection, schedule: Q01DX009 (ip), vehicle: saline with Tween-80): 157 % of control
T/C (dose: 1.56 mg/kg/injection, schedule: Q01DX009 (ip), vehicle: saline with Tween-80): 181 % of control
T/C (dose: 2.5 mg/kg/injection, schedule: Q04DX003 (ip), vehicle: saline with Tween-80): 159 % of control
T/C (dose: 3.13 mg/kg/injection, schedule: Q04DX003 (ip), vehicle: saline with Tween-80): 154 % of control
T/C (dose: 5.0 mg/kg/injection, schedule: Q04DX003 (ip), vehicle: saline with Tween-80): 200 % of control
T/C [1]: 86 % of control
T/C (dose: 6.25 mg/kg/injection, schedule: Q04DX003 (ip), vehicle: saline with Tween-80): 227 % of control
T/C (dose: 12.5 mg/kg/injection, schedule: Q04DX003 (ip), vehicle: saline with Tween-80): 104 % of control

OCCN1CCN(CC/C=C2/c3ccccc3Sc3ccc(C(F)(F)F)cc32)CC1
T/C (dose: 10.0 mg/kg/injection, schedule: Q04DX003 (ip), vehicle: saline): 115 % of control and 123 % of control
T/C (dose: 20.0 mg/kg/injection, schedule: Q04DX003 (ip), vehicle: saline): 115 % of control
T/C (dose: 80.0 mg/kg/injection, schedule: Q04DX003 (ip), vehicle: saline): 91 % of control

CN(CN1C(=O)CCC1=O)CN1C(=O)CCC1=O
T/C (dose: 30.0 mg/kg/injection, schedule: Q01DX005 (ip), vehicle: saline): 106 % of control
T/C (dose: 60.0 mg/kg/injection, schedule: Q01DX005 (ip), vehicle: saline): 106 % of control and 110 % of control
T/C (dose: 120.0 mg/kg/injection, schedule: Q01DX005 (ip), vehicle: saline): 108 % of control
T/C (dose: 240.0 mg/kg/injection, schedule: Q01DX005 (ip), vehicle: saline): 119 % of control

CS(=O)(=O)N/N=C/C(=O)O
T/C (dose: 12.5 mg/kg/injection, schedule: Q01DX009 (ip), vehicle: water): 118 % of control
T/C (dose: 50.0 mg/kg/injection, schedule: Q01DX009 (ip), vehicle: water): 160 % of control
T/C (dose: 100.0 mg/kg/injection, schedule: Q01DX009 (ip), vehicle: water): 157 % of control and 159 % of control

CCOC(=O)/C=C1\SC(C)(C)C1NC(=O)OCc1ccccc1 (stereo unspecified)
T/C (dose: 15.0 mg/kg/injection, schedule: Q01DX005 (ip), vehicle: Klucel (hydroxypropylcellulose) (HPC)): 94 % of control
T/C (dose: 30.0 mg/kg/injection, schedule: Q01DX005 (ip), vehicle: Klucel (hydroxypropylcellulose) (HPC)): 103 % of control
T/C [2]: 91 % of control and 93 % of control

CCCCCCCCCC[CH2][Sn]([CH2]CCCCCCCCCC)([CH2]CCCCCCCCCC)[CH2]CCCCCCCCCC
T/C (dose: 6.25 mg/kg/injection, schedule: Q01DX009 (ip), vehicle: saline): 99 % of control
T/C (dose: 12.5 mg/kg/injection, schedule: Q01DX009 (ip), vehicle: saline): 105 % of control
T/C (dose: 25.0 mg/kg/injection, schedule: Q01DX009 (ip), vehicle: saline): 99 % of control

Cc1cc(O)c(C(=O)/C=C(\O)c2ccccc2)c(=O)o1
T/C (dose: 10.5 mg/kg/injection, schedule: Q01DX005 (ip), vehicle: Klucel (hydroxypropylcellulose) (HPC)): 100 % of control
T/C (dose: 21.0 mg/kg/injection, schedule: Q01DX005 (ip), vehicle: Klucel (hydroxypropylcellulose) (HPC)): 102 % of control
T/C (dose: 42.0 mg/kg/injection, schedule: Q01DX005 (ip), vehicle: Klucel (hydroxypropylcellulose) (HPC)): 106 % of control
T/C (dose: 84.0 mg/kg/injection, schedule: Q01DX005 (ip), vehicle: Klucel (hydroxypropylcellulose) (HPC)): 86 % of control

CCCCCCCCCCCCCCCC(=O)N(C/C=C/CN(CCCN(C)C)C(=O)CCCCCCCCCCCCCCC)CCCN(C)C
T/C [1]: 100 % of control
T/C (dose: 12.5 mg/kg/injection, schedule: Q01DX009 (ip), vehicle: saline with Tween-80): 90 % of control
T/C (dose: 25.0 mg/kg/injection, schedule: Q01DX009 (ip), vehicle: saline with Tween-80): 90 % of control

COC(=O)c1[nH]c(=O)c(C#N)c(C(=O)OC)c1C(=O)c1ccc2ccccc2c1
T/C [2]: 90 % of control
T/C (dose: 120.0 mg/kg/injection, schedule: Q01DX005 (ip), vehicle: Klucel (hydroxypropylcellulose) (HPC)): 88 % of control
T/C (dose: 240.0 mg/kg/injection, schedule: Q01DX005 (ip), vehicle: Klucel (hydroxypropylcellulose) (HPC)): 97 % of control

COC(=O)C1([Se]c2ccccc2)CCN2CCC(OCc3ccccc3[N+](=O)[O-])C21 (stereo unspecified)
T/C (dose: 25.0 mg/kg/injection, schedule: Q01DX001 (ip), vehicle: saline with Tween-80): 90 % of control
T/C (dose: 50.0 mg/kg/injection, schedule: Q01DX001 (ip), vehicle: saline with Tween-80): 105 % of control
T/C (dose: 100.0 mg/kg/injection, schedule: Q01DX001 (ip), vehicle: saline with Tween-80): 108 % of control and 89 % of control

C/C(=N\Nc1nncn2cccc12)c1ccccc1
T/C (dose: 100.0 mg/kg/injection, schedule: Q04DX002 (ip), vehicle: saline with Tween-80): 113 % of control
T/C (dose: 200.0 mg/kg/injection, schedule: Q04DX002 (ip), vehicle: saline with Tween-80): 120 % of control
T/C (dose: 400.0 mg/kg/injection, schedule: Q04DX002 (ip), vehicle: saline with Tween-80): 124 % of control

OCC12CC=CCC1C1CC=CCC1O2 (stereo unspecified)
T/C (dose: 50.0 mg/kg/injection, schedule: Q01DX005 (ip), vehicle: saline): 101 % of control
T/C (dose: 100.0 mg/kg/injection, schedule: Q01DX005 (ip), vehicle: saline): 99 % of control
T/C (dose: 200.0 mg/kg/injection, schedule: Q01DX005 (ip), vehicle: saline): 103 % of control

c1ccc(C2=NC3CCCC[C@H]3O2)cc1 (stereo partly specified)
T/C (dose: 30.0 mg/kg/injection, schedule: Q01DX005 (ip), vehicle: saline with Tween-80): 108 % of control
T/C [3]: 101 % of control and 96 % of control
T/C [4]: 105 % of control
T/C [5]: 100 % of control

C/C(=N\N=C(/[Se])N1CCCCCC1)c1ccccn1
T/C (dose: 25.0 mg/kg/injection, schedule: Q04DX003 (ip), vehicle: Klucel (hydroxypropylcellulose) (HPC)): 110 % of control
T/C (dose: 50.0 mg/kg/injection, schedule: Q04DX003 (ip), vehicle: Klucel (hydroxypropylcellulose) (HPC)): 118 % of control
T/C (dose: 200.0 mg/kg/injection, schedule: Q04DX003 (ip), vehicle: Klucel (hydroxypropylcellulose) (HPC)): 86 % of control

CCOC(=O)NC(NC(=O)OCC)c1cccc([N+](=O)[O-])c1
T/C [6]: 91 % of control
T/C (dose: 200.0 mg/kg/injection, schedule: Q04DX003 (ip), vehicle: saline): 95 % of control
T/C (dose: 400.0 mg/kg/injection, schedule: Q04DX003 (ip), vehicle: saline): 91 % of control

O=C(CCl)NCCCl
T/C (dose: 50.0 mg/kg/injection, schedule: Q01DX009 (ip), vehicle: saline): 97 % of control
T/C (dose: 100.0 mg/kg/injection, schedule: Q01DX009 (ip), vehicle: saline): 100 % of control

NC(COc1ccccc1)Cc1ccccc1 (stereo unspecified)
T/C (dose: 12.5 mg/kg/injection, schedule: Q04DX003 (ip), vehicle: saline): 100 % of control
T/C (dose: 25.0 mg/kg/injection, schedule: Q04DX003 (ip), vehicle: saline): 100 % of control
T/C (dose: 50.0 mg/kg/injection, schedule: Q04DX003 (ip), vehicle: saline): 102 % of control
T/C [6]: 99 % of control

O=c1cc(-c2ccccc2)c(N=Nc2ccccc2)c(S)n1-c1ccccc1
T/C (dose: 50.0 mg/kg/injection, schedule: Q01DX005 (ip), vehicle: saline with Tween-80): 87 % of control
T/C (dose: 100.0 mg/kg/injection, schedule: Q01DX005 (ip), vehicle: saline with Tween-80): 88 % of control
T/C (dose: 200.0 mg/kg/injection, schedule: Q01DX005 (ip), vehicle: saline with Tween-80): 90 % of control

COC(=O)c1nc2[nH]n(-c3ccccc3)c(=O)c2c(C(=O)OC)c1C(C)C(=O)c1ccccc1 (stereo unspecified)
T/C [3]: 100 % of control
T/C [4]: 109 % of control
T/C [5]: 94 % of control

COc1nc(N)nc2c1ncn2C1CC(O)C(CO)O1 (stereo unspecified)
T/C (dose: 50.0 mg/kg/injection, schedule: Q01DX005 (ip), vehicle: Klucel (hydroxypropylcellulose) (HPC)): 100 % of control
T/C (dose: 100.0 mg/kg/injection, schedule: Q01DX005 (ip), vehicle: Klucel (hydroxypropylcellulose) (HPC)): 100 % of control
T/C (dose: 200.0 mg/kg/injection, schedule: Q01DX005 (ip), vehicle: Klucel (hydroxypropylcellulose) (HPC)): 112 % of control
